Data as given in patent US8575153B2 (Kowa Company, Ltd., priority 2008, dated 2013).

Experiments:
[1] = biological target: Recombinant human JAK3 enzyme (JAK3 kinase region; Ala795-Ser1124) (Homo sapiens, UniProt P52333); test: JAK3 Kinase Assay (Kinase-Glo luminescent, ATP consumption); conditions: read-out: Inhibition rate (%) of JAK3 kinase activity
Sequence of Recombinant human JAK3 enzyme (JAK3 kinase region; Ala795-Ser1124) (P52333 795-1124): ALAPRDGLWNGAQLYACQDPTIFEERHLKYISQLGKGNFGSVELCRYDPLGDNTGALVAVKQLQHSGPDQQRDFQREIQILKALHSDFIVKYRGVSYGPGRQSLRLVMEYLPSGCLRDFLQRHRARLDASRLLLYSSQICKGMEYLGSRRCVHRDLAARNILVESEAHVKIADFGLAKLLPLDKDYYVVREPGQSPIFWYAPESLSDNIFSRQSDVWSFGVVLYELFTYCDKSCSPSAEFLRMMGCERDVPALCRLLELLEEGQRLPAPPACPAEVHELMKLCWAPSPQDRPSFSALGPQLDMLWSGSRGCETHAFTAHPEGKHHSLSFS

Row | melting point | inhibition at 0.1 µM [1] | Structure (SMILES)
1 | 213.5 to 214.1 °C (dec.) | 61% | N#Cc1cc(Nc2cc(NCc3cc(F)cc(F)c3)c(C(N)=O)cn2)ccc1N1CCOCC1 [Example 125, 6-[(3-cyano-4-morpholinophenyl)amino]-4-[(3,5-difluorobenzyl)amino]pyridine-3-carboxyamide]
2 | 202.9 to 203.3 °C (dec.) | 89% | COC1CCN(c2ccc(Nc3cc(NCc4cc(F)cc(F)c4)c(C(N)=O)cn3)cc2)CC1 [Example 190, 4-[(3,5-difluorobenzyl)amino]-6-{[4-(4-methoxypiperidino)phenyl]amino}pyridine-3-carboxyamide]
3 | 229 to 230 °C | 69% | Cc1c(F)cccc1CNc1cc(Nc2ccc(N3CCOCC3)cc2)ncc1C(N)=O [Example 100, 4-[(3-fluoro-2-methylbenzyl)amino]-6-[(4-morpholinophenyl)amino]pyridine-3-carboxyamide]
4 | 233.5 to 235.2 °C (dec.) | 60% | CCCC(=O)N1CCN(c2ccc(Nc3cc(NCc4ccccc4)c(C(N)=O)cn3)cc2)CC1 [Example 258, 4-(benzylamino)-6-{[4-(4-butanoylpiperazin-1-yl)phenyl]amino}pyridine-3-carboxyamide]
5 | 236 to 238 °C (dec.) | 100% | CS(=O)(=O)Nc1ccc(Nc2cc(NCc3cc(F)cc(F)c3)c(C(N)=O)cn2)cc1 [Example 159, 4-[(3,5-difluorobenzyl)amino]-6-({4-[(methylsulfonyl)amino]phenyl}amino)pyridine-3-carboxyamide]
6 | 169 to 172 °C (dec.) | 74% | NC(=O)c1cnc(Nc2ccc(NC3CCNCC3)cc2)cc1NCc1ccccc1 [Example 289, 4-(benzylamino)-6-{[4-(piperidin-4-ylamino)phenyl]amino}pyridine-3-carboxyamide]
7 | 216 to 219 °C (dec.) | 81% | CS(=O)(=O)NCCN1CCN(c2ccc(Nc3cc(NCc4cc(F)cc(F)c4)c(C(N)=O)cn3)cc2)CC1 [Example 249, 4-[(3,5-difluorobenzyl)amino]-6-{[4-(4-{2-[(methylsulfonyl)amino]ethyl}piperazin-1-yl]phenyl]amino}pyridine-3-carboxyamide]
8 | 238 to 240 °C (dec.) | 63% | NC(=O)c1cnc(Nc2ccc(N3CCC(O)CC3)cc2)cc1NCc1cc(F)cc(F)c1 [Example 191, 4-[(3,5-difluorobenzyl)amino]-6-{[4-(4-hydroxypiperidino)phenyl]amino}pyridine-3-carboxyamide]
9 | 239 to 242 °C (dec.) | 68% | CC(C)S(=O)(=O)N1CCN(c2ccc(Nc3cc(NCc4cc(F)cc(F)c4)c(C(N)=O)cn3)cc2)CC1 [Example 170, 4-[(3,5-difluorobenzyl)amino]-6-({4-[4-(propan-2-ylsulfonyl)piperazin-1-yl]phenyl}amino) pyridine-3-carboxyamide]
10 | 142 to 144 °C (dec.) | – | CC(C)S(=O)(=O)N1CCC(c2ccc(Nc3cc(NCc4cc(F)cc(F)c4)c(C(N)=O)cn3)cc2)CC1 [Example 296, 4-[(3,5-difluorobenzyl)amino]-6-({4-[1-(propan-2-ylsulfonyl)piperidin-4-yl]phenyl}amino) pyridine-3-carboxyamide]
11 | 222 to 223 °C (dec.) | 81% | NC(=O)c1cnc(Nc2ccc(N3CCOCC3)c(Cl)c2)cc1NCc1cc(F)cc(F)c1 [Example 127, 6-[(3-chloro-4-morpholinophenyl)amino]-4-[(3,5-difluorobenzyl)amino]pyridine-3-carboxyamide]
12 | 190 to 191 °C (dec.) | 77% | N#CCCCN1CCN(c2ccc(Nc3cc(NCc4cccc([N+](=O)[O-])c4)c(C(N)=O)cn3)cc2)CC1 [Example 242, 6-({4-[4-(3-cyanopropyl)piperazin-1-yl]phenyl}amino)-4-[(3-nitrobenzyl)amino]pyridine-3-carboxyamide]
13 | 165 to 167 °C | 61% | NC(=O)c1cnc(Nc2ccc(N3CCCNCC3)cc2)cc1NCc1ccccc1 [Example 226, 4-(benzylamino)-6-{[4-(1,4-diazepan-1-yl)phenyl]amino}pyridine-3-carboxyamide]
14 | 223 to 226 °C (dec.) | 89% | NC(=O)c1cnc(Nc2ccc(N3CCC(=O)CC3)cc2)cc1NCc1cc(F)cc(F)c1 [Example 192, 4-[(3,5-difluorobenzyl)amino]-6-{[4-(4-oxopiperidino)phenyl]amino}pyridine-3-carboxyamide]
15 | 218 to 220 °C (dec.) | 67% | CC(C)C(=O)N1CCN(c2ccc(Nc3cc(NCc4ccccc4)c(C(N)=O)cn3)cc2)CC1 [Example 259, 4-(benzylamino)-6-({4-[4-(2-methylpropanoyl)piperazin-1-yl]phenyl}amino)pyridine-3-carboxyamide]
16 | 190 to 191 °C (dec.) | 68% | CCN(CC)CC(=O)N1CCN(c2ccc(Nc3cc(NCc4cccc([N+](=O)[O-])c4)c(C(N)=O)cn3)cc2)CC1 [Example 276, 6-({4-[4-(N,N-diethylglycyl)piperazin-1-yl]phenyl}amino)-4-[(3-nitrobenzyl)amino]pyridine-3-carboxyamide]
17 | 166 to 167 °C | 79% | CC(C)NC(=O)N1CCC(Nc2ccc(Nc3cc(NCc4ccccc4)c(C(N)=O)cn3)cc2)CC1 [Example 291, 4-(benzylamino)-6-[(4-{[1-(propan-2-ylcarbamoyl)piperidin-4-yl]amino}phenyl)amino]pyridine-3-carboxyamide]
18 | 165 to 166 °C | 82% | CCN(CC)CCN1CCN(c2ccc(Nc3cc(NCc4cccc([N+](=O)[O-])c4)c(C(N)=O)cn3)cc2)CC1 [Example 235, 6-[(4-{4-[2-(diethylamino)ethyl]piperazin-1-yl}phenyl)amino]-4-[(3-nitrobenzyl)amino]pyridine-3-carboxyamide]
19 | 190 to 194 °C (dec.) | – | NCCN1CCN(c2ccc(Nc3cc(NCc4cc(F)cc(F)c4)c(CC(N)=O)cn3)cc2)CC1 [Example 248, 6-({4-{4-(2-aminoethyl)piperazin-1-yl]phenyl}amino]-4-[(3,5-difluorobenzyl)amino]pyridine-3-carboxyamide]
20 | – | 72% | CCCS(=O)(=O)Nc1ccc(Nc2cc(NCc3cc(F)cc(F)c3)c(C(N)=O)cn2)cc1 [Example 162, 4-[(3,5-difluorobenzyl)amino]-6-({4-[(propylsulfonyl)amino]phenyl}amino)pyridine-3-carboxyamide]
21 | – | 85% | N#CCCN1CCN(c2ccc(Nc3cc(NCc4cc(F)cc(F)c4)c(C(N)=O)cn3)cc2)CC1 [Example 240, 6-({4-[4-(2-cyanoethyl)piperazin-1-yl]phenyl}amino)-4-[(3,5-difluorobenzyl)amino]pyridine-3-carboxyamide]
22 | – | 86% | NC(=O)c1cnc(Nc2ccc(N3CCC(C(=O)NCCO)CC3)cc2)cc1NCc1ccccc1 [Example 176, 4-(benzylamino)-6-[(4-{4-[(2-hydroxyethyl)carbamoyl]piperidino}phenyl)amino]pyridine-3-carboxyamide]
